Patent US8389573B2, “Glycyrrhetinic acid derivatives” (Wellington Laboratories Inc., priority 2006, dated 2013)
Entries after “also recorded” stand apart in the source; their conditions may differ.

Legend:
[1] = system: Sp protein levels in RKO cells; assay: Sp protein expression (gel) in RKO cells; format: cell-based
AR promoter = assay: AR-luc promoter luciferase assay in LNCaP cells; format: cell-based
Source text: Transfections: The Gal4 reporter construct containing 5× Gal4 response elements (pGal4) was kindly provided by Dr. Marty Mayo (University of North Carolina, Chapel Hill, N.C.). The Gal4 DBD-PPARγ construct was a gift of Dr. Jennifer L. Oberfield (Glaxo Wellcome Research and Development, Research Triangle Park, N.C.). The PPRE-luc construct contains three tandem PPREs with a minimal TATA sequence linked to the luciferase gene in pGL2. The AR-luc construct containing the −5400 to +580 region of the androgen receptor promoter was provided by Dr. Donald J. Tindall (Mayo Clinic, Rochester, Minn.), and the PSA-luc construct containing the 5.8-kilobase region of the PSA promoter was provided by Dr. Hong-Wu Cheng (University of California, Davis, Calif.). LNCaP cells (1×10^5) were seeded in 12-well plates in DMEM/Ham's F-12 media supplemented with 2.5% charcoal-stripped FBS and grown overnight. Transient transfections were performed using Lipofectamine reagent (Invitrogen) according to the protocol provided by the manufacturer. Transfection studies were performed using 0.4 μg of Gal4Luc, 0.04 μg of β-galactosidase, 0.04 μg of Gal4 DBD-PPARγ, 0.4 μg of AR-luc, and 0.3 μg of PSA-luc. […] A Lumicount luminometer (PerkinElmer Life and Analytical Sciences) was used to quantify luciferase and β-galactosidase activities, and the luciferase activities were normalized to β-galactosidase activity.

HT-29 cells = assay: Western blot analysis in HT-29 cells; format: cell-based, human
Procedure: SW-480 and HT-29 (3×10^5) cells were seeded in six-well plates in DMEM/Ham's F-12 media containing 2.5% charcoal-stripped FBS for 24 h and then treated with either the vehicle (DMSO) or the indicated compounds. Whole-cell lysates were obtained using high-salt buffer [50 mM HEPES, 500 mM NaCl, 1.5 mM MgCl2, 1 mM EGTA, 10% glycerol, and 1% Triton X-100, pH 7.5, and 5 μl/ml Protease Inhibitor Cocktail (Sigma-Aldrich)]. Protein samples were incubated at 100° C. for 2 min, separated on 10% SDS-PAGE at 120 V for 3 to 4 h in 1× running buffer (25 mM Tris-base, 192 mM glycine, and 0.1% SDS, pH 8.3), and transferred to polyvinylidene difluoride membrane (PVDF; Bio-Rad, Hercules, Calif.) at […] for 16 h at 4° C. in 1× transfer buffer (48 mM Tris-HCl, 39 mM glycine, and 0.025% SDS). The PVDF membrane was blocked in 5% TBST-Blotto (10 mM Tris-HCl, 150 mM NaCl, pH 8.0, 0.05% Triton X-100, and 5% nonfat dry milk) with gentle shaking for 30 min and was incubated in fresh 5% TBST-Blotto with 1:1000 (for caveolin-1, p27, p21, cyclin D1, Grp78), 1:500 (for KLF4, NAG-1), 1:250 (for PARP), and 1:5000 (for β-actin) primary antibody overnight with gentle shaking at 4° C. After washing with TBST for 10 min, the PVDF membrane was incubated with secondary antibody (1:5000) in 5% TBST-Blotto for 90 min. The membrane was washed with TBST for 10 min, incubated with 10 ml of chemiluminescence substrate (PerkinElmer) for 1.0 min, and exposed to Kodak X-OMAT AR autoradiography film (Eastman Kodak, Rochester, N.Y.).

[2] = system: Sp1, Sp3 and Sp4 protein expression in Panc28 cells; assay: Sp protein expression (gels) in Panc28 cells; format: cell-based
[3] = system: Panc28 pancreatic cancer cells; assay: Growth inhibition in Panc28 pancreatic cancer cells; format: cell-based; settings: Pancreatic cancer cell
p21 promoter = p21 promoter construct luciferase assay in LNCaP cells; format: cell-based; settings: 1-5 μM
AR mRNA = assay: Real-time PCR of AR mRNA in LNCaP cells; format: cell-based, human
Procedure: Real-Time PCR: Total RNA was isolated using the RNeasy Protect Mini kit (QIAGEN, Valencia, Calif.) according to the manufacturer's protocol. RNA was eluted with 30 μl of RNasefree water and stored at −80° C. RNA was reverse transcribed using Superscript II reverse transcriptase (Invitrogen) according to the manufacturer's protocol. cDNA was prepared from the LNCaP cell line using a combination of oligodeoxythymidylic acid and dNTP mix (Applied Biosystems, Foster City, Calif.) and Superscript II (Invitrogen). Each PCR was carried out in triplicate in a 25-μl volume using SYBR Green Master mix (Applied Biosystems) for 15 min at 95° C. for initial denaturing, followed by 40 cycles of 95° C. for 30 s and 60° C. for 1 min in the ABI Prism 7700 sequence detection system (Applied Biosystems). The ABI Dissociation Curves software was used after a brief thermal protocol (95° C. 15 s and 60° C. 20 s, followed by a slow ramp to 95° C.) to control for multiple species in each PCR amplification. The comparative CT method was used for relative quantitation of samples. Values for each gene were normalized to expression levels of TATA-binding protein. Primers were purchased from Integrated DNA Technologies (Coralville, Iowa). The sequences of the primers used for reverse transcription-PCR were as follows: AR forward, 5′-GTA CCC TGG CGG CAT GGT-3′ [SEQ ID NO: 1] and AR reverse, 5′-CCCATTTCGCTTTTGACACA-3′ [SEQ ID NO: 2]; PSA forward, 5′-GCATTGAACCAGAGGAGTTCTTG-3′ [SEQ ID NO: 3] and PSA reverse, 5′-TTG CGC ACA CAC GTC ATT G-3′ [SEQ ID NO: 4]; and TATA-binding protein forward, 5′-TGCACAGGAGCCAAGAGTGAA-3′ [SEQ ID NO: 5] and reverse, 5′-CACATCACAGCTCCCCACCA-3′ [SEQ ID NO: 6].

melting point: 243 to 245 °C | IC50 [3]: 1000 to 2500 nM
Structure (SMILES): COC(=O)[C@@]1(C)CC[C@]2(C)CC[C@]3(C)C(=CC(=O)[C@@H]4[C@@]5(C)C=C(C#N)C(=O)C(C)(C)[C@@H]5CC[C@]43C)[C@@H]2C1 [β-CDODA-Me, Methyl 2-cyano-3,11-dioxo-18β-oleana-1,12-dien-30-oate]
Sp protein expression [1]: decreases Sp protein expression | VEGF protein expression [1]: decreased VEGF protein expression | decrease of Sp protein expression with T007 or proteasome inhibitors [1]: not reversed | luciferase activity of AR-Luc construct (AR promoter): decreased luciferase activity | NAG-1 and KLF4 proteins (HT-29 cells; HT-29, 24 hours): induction of NAG-1 and KLF4 proteins | PARP cleavage (HT-29 cells; HT-29, 24 hours): induction of PARP cleavage | NAG-1 protein levels (HT-29 cells; HT-29, 24 hours, higher (5 μM) concentration): decreased | induction of NAG-1 and PARP cleavage after cotreatment with T007 (HT-29 cells; HT-29, 24 hr): not affected | KLF-4 induction after cotreatment with T007 (HT-29 cells; HT-29, 24 hr, 10 μM T007): blocks this induction response | caveolin-1 (HT-29 cells; HT-29, 3 days): induction of caveolin-1 | induction of caveolin-1 after cotreatment with T007 (HT-29 cells; HT-29, 96 hr, 10 μM T007): inhibited | Sp1, Sp3 and Sp4 protein expression [2]: concentration-dependent decrease; also recorded: induces Sp protein degradation | VEGF expression [2]: parallel decrease | caspase-dependent apoptosis (PARP cleavage) [2]: induction of caspase-dependent apoptosis | effects on Sp protein expression with PPARγ antagonist (T007) [2]: not blocked; also recorded: not reversed | effects on Sp protein expression with proteasome inhibitor lactacystin [2]: not blocked; also recorded: only a minimal amount of reversal | luciferase activity of p21 promoter constructs (p21 promoter): induces luciferase activity | AR mRNA effects in the presence of cycloheximide (10 μg/ml) (AR mRNA): did not modulate | AR mRNA levels after cotreatment with T007 (AR mRNA): did not affect mRNA levels | AR mRNA levels (AR mRNA; 12 and 18 hr): decreases AR mRNA levels
